Data published in patent USRE46095E1, “Herbicidal compositions” (BAYER CROPSCIENCE AG, priority 2008, dated 2016).
Structures can show the parent of a compound that is named as a salt.

Columns and labels:
Format in all cases: in vivo
Geranium dissectum = test: Pre-emergence herbicidal action, pot trial/greenhouse (Example 5.3, Table 6); conditions: 672 h, read-out: Herbicidal action [%] against Geranium dissectum; for pest or weed control at 50 g/ha: 50 g of AS/ha
Description: (§1) Seeds or rhizome pieces of monocotyledonous and dicotyledonous harmful plants are placed in sandy loam in pots and covered with soil. The compositions, formulated as concentrated aqueous solutions, wettable powders or emulsion concentrates, are then applied to the surface of the covering soil as an aqueous solution, suspension or emulsion at an application rate of 300 to 800I of water/ha (converted) in a variety of dosages. After the treatment, the pots are placed in a green-house and kept under good growth conditions for the weeds. Visual scoring of plant or emergence damage is carried out after the test plants have emerged after an experimental period of 3 to 4 weeks in comparison with untreated controls.
(§2) The herbicidal efficacy of the active compounds or active compound mixtures was scored visually by comparing the treated pots (soil) with untreated controls. The damage and development of all above-ground plant parts was recorded. Scoring was done on a percentage scale (example values: 100% action=all plants dead or not emerged; 50% action=50% of the plants and green plant parts dead or not emerged; 0% action=no discernible action=like control plot). The score figures of in any case 2 repetitions (pots) were averaged.
(§3) When the data observed already exceed the formal total of the data in the experiments with individual applications, they likewise exceed the expected value according to Colby, which is calculated using the formula below and is likewise regarded as an indication of synergism (cf. S. R. Colby; in Weeds 15 (1967) pp. 20 to 22): E=A+B−(A·B/100)
(§4) In this formula: • A=action of active compound (A) in % at an application rate of a g of AS/ha; • B=action of active compound (B) in % at an application rate of b g of AS/ha; • E=expected value of the action of the combination (A)+(B) in % at the combined application rate a+b g of AS/ha.
(§5) The following abbreviations are used in the description and the tables below: • g of AS/ha=grams of active substance (=100% active compound) per hectare; • the total of the activities of the individual applications is given as E^A; • the expected values according to Colby are in each case given as E^C; Example 5.1
(§6) Certain combinations were tested for their herbicidal activity in accordance with the general example 1 (pre-emergence method).

Ipomoea hederifolia = test: Pre-emergence herbicidal action, pot trials/greenhouse (Example 5.1, Table 4); conditions: evaluation 27 days after treatment
Description: as §1, §2, §3, §4, §5, §6

Erodium cicutarium = test: Pre-emergence herbicidal action, pot trials/greenhouse (Example 5.2, Table 5); conditions: evaluation 28 days after treatment
Description: as §1, §2, §3, §4, §5, §6

[1] = pot trial/greenhouse, evaluation 28 days after treatment

Nc1cc(Cl)nc(C(=O)O)c1Cl [(B2.4.1), 4-amino-3,6-dichloropyridine-2-carboxylic acid]
pest or weed control at 75 g/ha (Geranium dissectum; 75 g of AS/ha, pot trial/greenhouse, evaluation 28 days after treatment): 50%

Cc1nn(C)c(O)c1C(=O)c1ccc(C(F)(F)F)cc1S(C)(=O)=O [(B2.1.1), (5-hydroxy-1,3-dimethyl-1H-pyrazol-4-yl)-[2-(methylsulfonyl)-4-(trifluoromethyl)-phenyl]methanone]
pest or weed control at 30 g/ha (Geranium dissectum; 30 g of AS/ha, pot trial/greenhouse, evaluation 28 days after treatment): 20%

Cc1ccc2c(c1)[C@H](Nc1nc(N)nc([C@@H](C)F)n1)[C@@H](C)C2 [(A21), 2-amino-4-[(1R,2S)-2,6-dimethyl-indan-1-ylamino]-6-[(1R)-1-fluoroethyl]-1,3,5-triazine]
Herbicidal action [%] against Ipomoea hederifolia (Ipomoea hederifolia; 0.2 g of AS/ha): 0% | Herbicidal action [%] against Ipomoea hederifolia (Ipomoea hederifolia; 0.5 g of AS/ha): 45% | pest or weed control at 0.3 g/ha (Geranium dissectum; 0.3 g of AS/ha, pot trial/greenhouse, evaluation 28 days after treatment): 5% | pest or weed control at 1.2 g/ha (Geranium dissectum; 1.2 g of AS/ha, pot trial/greenhouse, evaluation 28 days after treatment): 20% | Herbicidal action [%] against Erodium cicutarium (Erodium cicutarium; 0.2 g of AS/ha): 0% | Herbicidal action [%] against Erodium cicutarium (Erodium cicutarium; 0.8 g of AS/ha): 25%

CCOC(=O)COc1ncccc1Oc1cc(-n2c(=O)cc(C(F)(F)F)n(C)c2=O)c(F)cc1Cl [(B1.3), ethyl [[3-[2-chloro-5-[3,6-dihydro-3-methyl-2,6-dioxo-4-(trifluoromethyl)-1(2H)-pyrimidinyl]-4-fluorophenoxy]-2-pyridinyl]oxy]acetate]
Herbicidal action [%] against Erodium cicutarium (Erodium cicutarium; 15 g of AS/ha): 65%

COc1cc(OC)nc(NC(=O)NS(=O)(=O)c2ncccc2OCC(F)(F)F)n1 [(B2.2.2), 1-(4,6-dimethoxypyrimidin-2-yl)-3-[3-(2,2,2-trifluoroethoxy)-2-pyridylsulfonyl]urea sodium salt]
pest or weed control at 25 g/ha (Geranium dissectum): 45%

COCCOCc1nc(C(F)(F)F)ccc1C(=O)C1=C(O)C2CCC(C2)C1=O (stereo not shown) [(B1.6.1), 4-hydroxy-3-[[2-[(2-methoxyethoxy)methyl]-6-trifluoromethyl-3-pyridinyl]carbonyl]-bicyclo[3.2.1]oct-3-en-2-one]
Herbicidal action [%] against Erodium cicutarium (Erodium cicutarium; 30 g of AS/ha): 55%

COc1cc(OC)n2nc(NS(=O)(=O)c3c(C(F)(F)F)ccnc3OC)nc2n1 [(B1.4.1), N-(5,7-dimethoxy[1,2,4]triazolo[1,5-a]pyrimidin-2-yl)-2-methoxy-4-(trifluoromethyl)pyridine-3-sulfonamide]
Herbicidal action [%] against Erodium cicutarium (Erodium cicutarium; 5 g of AS/ha): 50%

CCOC1Oc2ccc(OS(C)(=O)=O)cc2C1(C)C (racemic) [(B2.5), (RS)—O-(2-ethoxy-2,3-dihydro-3,3-dimethylbenzofuran-5-yl)methanesulfonate]
pest or weed control at 300 g/ha (Geranium dissectum; 300 g of AS/ha, pot trial/greenhouse, evaluation 28 days after treatment): 35%

Cn1nc(C(F)(F)F)c(CS(=O)(=O)C2=NOC(C)(C)C2)c1OC(F)F [(B3.1), 3-[5-(difluoromethoxy)-1-methyl-3-(trifluoromethyl)pyrazol-4-ylmethylsulfonyl]-4,5-dihydro-5,5-dimethyl-1,2-oxazole]
pest or weed control at 50 g/ha (Geranium dissectum; [1]): 50%

COC(=O)c1csc(C)c1S(=O)(=O)NC(=O)n1nc(OC)n(C)c1=O [(B1.1.2), methyl 4-[(4,5-dihydro-3-methoxy-4-methyl-5-oxo-1H-1,2,4-triazol-1-yl)carbonylsulfamoyl]-5-methylthiophene-3-carboxylate]
Herbicidal action [%] against Ipomoea hederifolia (Ipomoea hederifolia; 0.5 g of AS/ha): 5% | Herbicidal action [%] against Ipomoea hederifolia (Ipomoea hederifolia; 2.0 g of AS/ha): 50%

CS(=O)(=O)c1ccc(C(=O)C2C(=O)CCCC2=O)c(Cl)c1COCC(F)(F)F [(B1.2.1), 2-{2-chloro-4-mesyl-3-[(2,2,2-trifluoroethoxy)methyl]benzoyl}cyclohexane-1,3-dione]
Herbicidal action [%] against Erodium cicutarium (Erodium cicutarium; 50 g of AS/ha): 30%

CC(C)N(C)S(=O)(=O)NC(=O)c1cc(-n2c(=O)cc(C(F)(F)F)n(C)c2=O)c(F)cc1Cl [(B2.3.1), 2-chloro-5-[3,6-dihydro-3-methyl-2,6-dioxo-4-(trifluoromethyl)-1 (2H)-pyrimidinyl]-4-fluoro-N-[[methyl(1-methylethyl)amino]sulfonyl]benzamide]
pest or weed control at 50 g/ha (Geranium dissectum; [1]): 65%

Nc1nc(C2CC2)nc(C(=O)O)c1Cl [(B2.6.1), 6-amino-5-chloro-2-cyclopropylpyrimidine-4-carboxylic acid]
pest or weed control at 100 g/ha (Geranium dissectum; 100 g of AS/ha, pot trial/greenhouse, evaluation 28 days after treatment): 65%
